According to patent publication US11306102B2, “1,3-di-substituted ketene compound and application thereof” (BEBETTER MED INC., priority 2017, dated 2022):
pEC50: −log10 of the molar value.

Key:
[1] = Pharmacokinetic (PK) experiments after intragastric administration in rats; assay type: in vivo, SD rats; conditions: for AUC(0-inf) / AUC(0-t) / Cmax / Tmax / half-life: male, SD, rat, plasma, po, intragastric administration 20 mg/kg; for half-life: read-out: Terminal T1/2 (converted)
Description: Male SD rats, weighing 250-300 grams, were fasted overnight before testing. The test compound was dissolved in 30% sulfobutyl-R-cyclodextrin (SBE-β-CD) and administered intragastrically at a dose of 20 mg/kg. Blood was collected 15 minutes, 30 minutes, and 1, 2, 3, 4, […] and 24 hours after the administration. About 0.3 ml of blood was collected at each time point, placed in a centrifuge tube containing K2-EDTA (dipotassium ethylenediamine tetraacetate) and centrifuged (2,000 g, 10 minutes, 4° C.) to take the plasma, which was stored in an ultra-low temperature refrigerator at −80° C. A 50 μL plasma sample was mixed with 5 μl of internal standard (IS) and extracted with ethyl acetate. The residue was redissolved in acetonitrile after drying under vacuum. The sample was filtered and injected into an LC-MS/MS for analysis.

PPARα = biological target: T1, PPARα (Homo sapiens, UniProt Q07869); assay: Hela cell/luciferase reporter gene method, PPARα agonist activity; assay type: cell-based; conditions: for pEC50: Hela cells, pPPRE3-TK-Luciferase reporter, 24 hrs incubation, read-out: agonistic activity on PPAα (EC50); for ratio of PPARγ/PPARα activated (EC50 ratio): under the experimental conditions of the present disclosure
T1 construct: expressed in transfected cells; host or cells: Hela cells
T1 sequence (Q07869 1-468): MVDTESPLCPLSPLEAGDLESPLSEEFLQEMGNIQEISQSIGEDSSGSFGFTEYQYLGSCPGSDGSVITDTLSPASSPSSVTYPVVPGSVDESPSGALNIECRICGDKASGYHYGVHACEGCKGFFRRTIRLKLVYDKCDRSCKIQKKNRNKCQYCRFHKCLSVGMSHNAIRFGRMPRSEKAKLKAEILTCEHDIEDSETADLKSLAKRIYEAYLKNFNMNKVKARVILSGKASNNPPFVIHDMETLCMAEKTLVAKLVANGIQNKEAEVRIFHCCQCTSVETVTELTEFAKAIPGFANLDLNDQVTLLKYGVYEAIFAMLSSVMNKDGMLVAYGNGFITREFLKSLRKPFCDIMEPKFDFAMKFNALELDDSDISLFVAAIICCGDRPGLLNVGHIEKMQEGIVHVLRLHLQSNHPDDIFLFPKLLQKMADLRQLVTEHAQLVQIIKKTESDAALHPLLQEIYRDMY
Description: (§1) This example measures the biological activity of a PPAR agonist using the Hela cell/luciferase reporter gene method.
(§2) The target plasmids PCMV PPARα (Ampicillin+), PCMV PPARγ (Ampicillin+), PCMV PPARδ (Ampicillin+), and pPPRE3-TK-Luciferase (Ampicillin+) were introduced into DH5a competent cells by heat shock treatment, respectively. After being incubated for 1 hour at 37° C. with shaking (180 rpm), the cells were inoculated on LB agar solid medium containing antibiotic Ampicillin, and invertedly cultured at 37° C. for 12-16 hours. Then the monoclonal colony cultured on the medium was taken and inoculated into LB liquid medium for expanded culture. The desired plasmid was extracted from the resulting bacterial solution with a Plasmid Midi Kit (Qiagen; #12143). The plasmid obtained by centrifugation was suspended in TE buffer, and the plasmid concentration was measured and the mixture was stored at −20° C. Hela cells in the exponential phase were seeded in 6-well plates (8-10^5 cells/well), and after 6-8 hours of culture, the cells were transfected using Lipofectamine® 3000 Transfection Reagent (Invitrogen; #L3000015). A plasmid containing a PPAR binding site (peroxisome proliferator response element, PPRE) and a firefly luciferase gene (pPPRE3-TK-Luciferase) and PPAR expression vector were co-transfected into a Hela cell with a total amount of plasmid DNA of 2.5 ug (the mass ratio of each PPAR expression vector is pPPRE:PPARα=6:1, pPPRE:PPARδ=8:1, and pPPRE:PPARγ=2:1) to construct a drug screening cell model for PPAR agonists. PPAR was binded to the ligand and then binded to the peroxisome proliferator response element (PPRE), thereby initiating downstream firefly luciferase expression and its expression intensity was directly proportional to the degree of PPAR activation. The cells after 24 hours transfection were prepared into a cell suspension with a cell concentration of […] by a complete culture solution, and seeded into a 96-well plate with 100 ul per well. After overnight culture, the medium was changed to a medium containing 1% FBS. 10 mM candidate compound stock (1000×) were 4-fold diluted in DMSO for 8 points, then supplemented with medium containing 1% FBS to a final concentration of 50 uM (5×) by addition of 25 μl of 5× compound diluent to each well in different concentration gradients and incubated under 37° C., 5% CO2 incubator for 24 hrs. The 96-well plate was taken out and 30 μl of Bright-Glo™ Luciferase Assay System (Promega #E2620) was added to each well. The Luciferase luminescence intensity was measured by a SynergyH1 full-function microplate detector. The obtained data was used to calculate EC50 using GraphPad Prism 5.0 software to determine the biological activity of the compound.
(§3) The agonistic activity of the compounds synthesized in Examples 1-41 on PPAR is represented by EC50 (see Table 1). EC50 refers to the drug concentration at which the compound has a 50% increase in the agonistic activity of the measured PPAR. The compound numbers in Table 1 correspond to the compound numbers in Examples 1-41.

PPARγ = biological target: T2, PPARγ (Homo sapiens, UniProt P37231); assay: Hela cell/luciferase reporter gene method, PPARγ agonist activity; assay type: cell-based; conditions: for pEC50: Hela cells, pPPRE3-TK-Luciferase reporter, 24 hrs incubation, read-out: agonistic activity on PPARγ (EC50)
T2 construct: expressed in transfected cells; host or cells: Hela cells
T2 sequence (P37231 1-505): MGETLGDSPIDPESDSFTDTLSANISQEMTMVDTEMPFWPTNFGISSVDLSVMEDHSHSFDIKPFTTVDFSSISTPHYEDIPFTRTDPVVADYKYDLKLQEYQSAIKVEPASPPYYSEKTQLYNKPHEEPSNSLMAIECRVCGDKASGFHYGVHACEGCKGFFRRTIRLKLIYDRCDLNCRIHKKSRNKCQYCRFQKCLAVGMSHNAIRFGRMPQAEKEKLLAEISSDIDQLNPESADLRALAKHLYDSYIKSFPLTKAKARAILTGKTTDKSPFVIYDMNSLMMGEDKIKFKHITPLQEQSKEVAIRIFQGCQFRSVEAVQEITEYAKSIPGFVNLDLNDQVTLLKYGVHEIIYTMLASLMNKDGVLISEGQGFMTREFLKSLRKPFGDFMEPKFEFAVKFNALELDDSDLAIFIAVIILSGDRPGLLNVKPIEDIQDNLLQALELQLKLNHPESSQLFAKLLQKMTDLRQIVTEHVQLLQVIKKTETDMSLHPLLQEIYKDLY
Description: as §1, §2, §3

Row | SMILES | AUC(0-inf) [1] | AUC(0-t) [1] | Cmax [1] | Tmax [1] | half-life [1] | absorption after oral administration compared with Elafibranor (in words) [1] | blood exposure after oral administration compared with Elafibranor (in words) [1] | half-life after oral administration compared with Elafibranor (in words) [1] | pEC50 (PPARα) | pEC50 (PPARγ) | increased activity for activation of PPARα compared with Elafibranor (PPARα) | ratio of PPARγ/PPARα activated (EC50 ratio) (PPARα) | activation of PPARγ compared with Elafibranor (in words) (PPARγ)
1 | CSc1ccc(C(=O)/C=C/c2cc(C)c(OC(C)(C)C(=O)O)c(C)c2)c2occc12 [Compound 5, (E)-2-(2,6-dimethyl-4-(3-(4-(methylthio)benzofuran-7-yl)-3-oxoprop-1-en-1-yl)phenoxy)-2-methylpropanoic acid] | 3240 ng·h/mL | 3110 ng·h/mL | 2850 ng/mL | 15 min | 739 min | good absorption | highly effective blood exposure | significantly prolonged half-life | 7.61 | 7.58 | – | – | –
2 | CCSc1ccc(C(=O)/C=C/c2cc(C)c(OC(C)(C)C(=O)O)c(C)c2)c2occc12 [Compound 6, (E)-2-(4-(3-(4-(ethylthio)benzofuran-7-yl)-3-oxoprop-1-en-1-yl)-2,6-dimethylphenoxy)-2-methylpropanoic acid] | – | – | – | – | – | – | – | – | 8.02 | 7.20 | – | – | –
3 | CSc1ccc(C(=O)/C=C/c2cc(C)c(OC(C)(C)C(=O)O)c(C)c2)c2ccoc12 [Compound 27, (E)-2-(2,6-dimethyl-4-(3-(7-(methylthio)benzofuran-4-yl)-3-oxoprop-1-en-1-yl)phenoxy)-2-methylpropanoic acid] | – | – | – | – | – | – | – | – | 7.23 | 6.91 | – | – | –
4 | Cc1cc(/C=C/C(=O)c2ccc3c(c2)CCS3)cc(C)c1OC(C)(C)C(=O)O [Compound 36, (E)-2-(4-(3-(2,3-dihydrobenzo[b]thiophen-5-yl)-3-oxoprop-1-en-1-yl)-2,6-dimethylphenoxy)-2-methylpropanoic acid] | 3380 ng·h/mL | 3340 ng·h/mL | 2740 ng/mL | 22.8 min | 385 min | good absorption | highly effective blood exposure | significantly prolonged half-life | 7.12 | 7.50 | – | – | –
5 | COc1ccc2cc(C(=O)/C=C/c3cc(C)c(OC(C)(C)C(=O)O)c(C)c3)oc2c1 [Compound 43, (E)-2-(4-(3-(6-methoxybenzofuran-2-yl)-3-oxoprop-1-en-1-yl)-2,6-dimethylphenoxy)-2-methylpropanoic acid] | 1580 ng·h/mL | 1550 ng·h/mL | 2780 ng/mL | 15 min | 410 min | good absorption | highly effective blood exposure | significantly prolonged half-life | 7.40 | 6.93 | – | – | –
6 | CSc1ccc2cc(C(=O)/C=C/c3cc(C)c(OC(C)(C)C(=O)O)c(C)c3)oc2c1 [Compound 51, (E)-2-(2,6-dimethyl-4-(3-(6-(methylthio)benzofuran-2-yl)-3-oxoprop-1-en-1-yl)phenoxy)-2-methylpropanoic acid] | 479 ng·h/mL | 412 ng·h/mL | 484 ng/mL | 15 min | 739 min | good absorption | highly effective blood exposure | significantly prolonged half-life | 8.40 | 7.45 | 7 fold | 8.83 | little effect
7 | CSc1cccc2oc(C(=O)/C=C/c3cc(C)c(OC(C)(C)C(=O)O)c(C)c3)cc12 [Compound 60, (E)-2-(2,6-dimethyl-4-(3-(4-(methylthio)benzofuran-2-yl)-3-oxoprop-1-en-1-yl)phenoxy)-2-methylpropanoic acid] | – | – | – | – | – | – | – | – | 7.33 | 7.03 | – | – | –
8 | CSc1ccc2c(C)c(C(=O)/C=C/c3cc(C)c(OC(C)(C)C(=O)O)c(C)c3)oc2c1 [Compound 62, (E)-2-(2,6-dimethyl-4-(3-(3-methyl-6-(methylthio)benzofuran-2-yl)-3-oxoprop-1-en-1-yl)phenoxy)-2-methylpropanoic acid] | 3150 ng·h/mL | 3040 ng·h/mL | 1830 ng/mL | 15 min | 532 min | good absorption | highly effective blood exposure | significantly prolonged half-life | 7.78 | 6.88 | 1 fold | 7.98 | weak activation
9 | CCc1c(C(=O)/C=C/c2cc(C)c(OC(C)(C)C(=O)O)c(C)c2)oc2cc(SC)ccc12 [Compound 63, (E)-2-(4-(3-(3-ethyl-6-(methylthio)benzofuran-2-yl)-3-oxoprop-1-en-1-yl)-2,6-dimethylphenoxy)-2-methylpropanoic acid] | 1720 ng·h/mL | 1700 ng·h/mL | 812 ng/mL | 15 min | 258 min | good absorption | highly effective blood exposure | significantly prolonged half-life | 7.72 | 7.02 | – | – | –
10 | CCSc1ccc2c(C)c(C(=O)/C=C/c3cc(C)c(OC(C)(C)C(=O)O)c(C)c3)oc2c1 [Compound 74, (E)-2-(4-(3-(6-(ethylthio)-3-methylbenzofuran-2-yl)-3-oxoprop-1-en-1-yl)-2,6-dimethylphenoxy)-2-methylpropanoic acid] | – | – | – | – | – | – | – | – | 7.86 | 7.53 | – | – | –
